Experimental data as given in patent publication US11046699B2, “Pyrazolo-pyrimidin-amino-cycloalkyl compounds and their therapeutic uses” (RAPT THERAPEUTICS, INC., priority 2018, dated 2021).
pIC50: −log10 of the molar value. Read-outs that look alike come from different tables or passages of the source.

Target: GCN2 (Homo sapiens, UniProt Q9P2K8)
Assay: GCN2 enzymatic endpoint assay: phosphorylation of GFP-eIF2α measured by TR-FRET (Lanthascreen)
Format: biochemical
Method in brief: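 Endpoint GCN2 reaction with low ATP (2 μM) and 80 nM GFP-eIF2α, room temperature, 90 minutes. Detection mix with EDTA and Tb-labelled antibody; 520 nm/495 nm emission ratio reported.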

[1] = tested as described in Example 77, compound and/or hydrochloride, dihydrochloride or trifluoroacetic acid salt, read-out: IC 50 Activity
[2] = GCN2 biochemical IC50, 4 nM GCN2, 2 μM ATP, 80 nM GFP-eIF2α, 90 min RT, read-out: GCN2 activity

Chain of GCN2 (Q9P2K8 whole entry): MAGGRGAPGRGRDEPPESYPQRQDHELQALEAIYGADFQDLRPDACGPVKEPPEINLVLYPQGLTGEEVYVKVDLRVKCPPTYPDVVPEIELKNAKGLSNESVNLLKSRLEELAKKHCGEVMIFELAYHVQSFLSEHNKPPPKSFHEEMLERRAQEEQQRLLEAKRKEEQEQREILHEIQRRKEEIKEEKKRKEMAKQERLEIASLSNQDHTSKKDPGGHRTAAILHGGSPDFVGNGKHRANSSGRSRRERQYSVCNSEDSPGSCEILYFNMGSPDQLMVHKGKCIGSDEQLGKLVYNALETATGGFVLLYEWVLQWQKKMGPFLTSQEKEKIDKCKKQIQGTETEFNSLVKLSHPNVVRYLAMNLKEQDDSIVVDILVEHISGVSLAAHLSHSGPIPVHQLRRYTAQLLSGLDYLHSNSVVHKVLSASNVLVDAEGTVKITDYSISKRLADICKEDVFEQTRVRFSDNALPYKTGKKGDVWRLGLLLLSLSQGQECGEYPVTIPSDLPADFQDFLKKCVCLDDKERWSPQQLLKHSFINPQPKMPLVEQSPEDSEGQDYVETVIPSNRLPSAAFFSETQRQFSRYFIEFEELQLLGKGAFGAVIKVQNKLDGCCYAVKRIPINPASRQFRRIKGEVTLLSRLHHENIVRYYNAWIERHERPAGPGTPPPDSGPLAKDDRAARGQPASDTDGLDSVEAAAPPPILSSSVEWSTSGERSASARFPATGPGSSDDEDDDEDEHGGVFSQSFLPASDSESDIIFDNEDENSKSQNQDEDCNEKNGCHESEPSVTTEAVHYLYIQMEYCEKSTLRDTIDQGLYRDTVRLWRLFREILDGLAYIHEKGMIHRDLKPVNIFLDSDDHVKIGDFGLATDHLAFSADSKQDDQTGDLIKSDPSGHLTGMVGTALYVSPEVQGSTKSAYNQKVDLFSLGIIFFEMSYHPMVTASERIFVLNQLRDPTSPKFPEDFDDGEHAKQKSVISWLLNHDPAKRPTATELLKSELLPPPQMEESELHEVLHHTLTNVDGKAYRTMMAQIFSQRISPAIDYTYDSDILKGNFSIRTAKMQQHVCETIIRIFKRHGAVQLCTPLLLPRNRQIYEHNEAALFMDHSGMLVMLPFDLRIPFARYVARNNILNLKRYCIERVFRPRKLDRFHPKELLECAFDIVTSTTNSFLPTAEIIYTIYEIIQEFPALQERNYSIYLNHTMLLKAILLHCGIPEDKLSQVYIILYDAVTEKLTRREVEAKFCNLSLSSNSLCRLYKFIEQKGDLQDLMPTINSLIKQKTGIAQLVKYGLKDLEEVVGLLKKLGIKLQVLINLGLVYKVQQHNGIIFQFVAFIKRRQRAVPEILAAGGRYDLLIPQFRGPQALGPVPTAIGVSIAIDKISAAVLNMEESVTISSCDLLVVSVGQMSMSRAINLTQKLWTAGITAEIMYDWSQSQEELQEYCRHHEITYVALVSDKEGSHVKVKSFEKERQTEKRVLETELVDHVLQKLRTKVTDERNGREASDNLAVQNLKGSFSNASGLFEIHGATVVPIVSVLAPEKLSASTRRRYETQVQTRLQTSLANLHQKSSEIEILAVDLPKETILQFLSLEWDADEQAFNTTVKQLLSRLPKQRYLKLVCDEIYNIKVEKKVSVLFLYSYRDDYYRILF

Row | Structure (SMILES) | pIC50 [1] | pIC50 [2]
1 | CNC(=O)[C@]1(C)CC[C@@H](Nc2ncc3c(Br)nn(-c4cc(CCN)c5c(c4)CCO5)c3n2)C1 [(1R,3R)-3-[[1-[7-(2-aminoethyl)-2,3-dihydrobenzofuran-5-yl]-3-bromo-pyrazolo [3,4-d]pyrimidin-6-yl]amino]-N,1-dimethyl-cyclopentanecarboxamide] | 6.70 to 7.60 | –
2 | CNC(=O)[C@]1(C)CC[C@@H](Nc2ncc3c(Br)nn(-c4ccc(-c5nnc(COC)o5)cc4)c3n2)C1 [(1R,3R)-3-[[3-bromo-1-[4-[5-(methoxy-methyl)-1,3,4-oxadiazol-2-yl]phenyl]pyrazolo [3,4-d]pyrimidin-6-yl]amino]-N,1-dimethyl-cyclopentanecarboxamide] | 6.70 to 7.60 | –
3 | CC1(C(=O)N2CCN3CCOC[C@@H]3C2)CC[C@@H](Nc2ncc3c(Br)nn(-c4cc(F)c5ncccc5c4)c3n2)C1 (stereo partly drawn) [[(9aS)-3,4,6,7,9,9a-hexahydro-1H-pyrazino [2,1-c][1,4]oxazin-8-yl]-[(3R)-3-[[3-bromo-1-(8-fluoro-6-quinolyl)pyrazolo[3,4-d]pyrimidin-6-yl]amino]-1-methyl-cyclopentyl]methanone] | 6.70 to 7.60 | –
4 | Cc1nnc(-c2ccc(-n3nc(Br)c4cnc(N[C@@H]5CC[C@@](C)(N(C)C)C5)nc43)cc2CCC#N)s1 [3-[5-[3-bromo-6-[[(1R,3R)-3-(dimethylamino)-3-methyl-cyclopentyl]amino]pyrazolo[3,4-d]pyrimidin-1-yl]-2-(5-methyl-1,3,4-thiadiazol-2-yl)phenyl]propanenitrile] | 6.70 to 7.60 | –
5 | CNC(=O)[C@]1(C)CC[C@@H](Nc2ncc3c(Br)nn(-c4cc(C#N)cc(CN)c4)c3n2)C1 | 6.70 to 7.60 | –
6 | CNC(=O)[C@]1(C)CC[C@@H](Nc2ncc3c(Br)nn(-c4cc(C#N)cc(OCC5CNC5)c4)c3n2)C1 [(1R,3R)-3-[[1-[3-(azetidin-3-ylmethoxy)-5-cyano-phenyl]-3-bromo-pyrazolo[3,4-d]pyrimidin-6-yl]amino]-N,1-dimethyl-cyclopentanecarboxamide] | > 7.60 | –
7 | CNC(=O)[C@]1(C)CC[C@@H](Nc2ncc3c(Br)nn(-c4cc(CCNC(C)=O)c5ncccc5c4)c3n2)C1 [(1R,3R)-3-[[1-[8-(2-acetamidoethyl)-6-quinolyl]-3-bromo-pyrazolo[3,4-d]pyrimidin-6-yl]amino]-N,1-dimethyl-cyclopentane-carboxamide] | 6.70 to 7.60 | –
8 | COCCNC(=O)[C@@H]1CC[C@@H](Nc2ncc3c(I)nn(-c4ccc5ncccc5c4)c3n2)C1 [Example 13, (1R,3R)-3-((3-iodo-1-(quinolin-6-yl)-1H-pyrazolo[3,4-d]pyrimidin-6-yl)amino)-N-(2-methoxyethyl)cyclopentane-1-carboxamide] | – | > 7.60
9 | CNC(=O)[C@]1(C)CC[C@@H](Nc2ncc3c(Br)nn(-c4ccc5c(c4)OC(C)(C)C(=O)N5C)c3n2)C1 [(1R,3R)-3-[[3-bromo-1-(2,2,4-trimethyl-3-oxo-1,4-benzoxazin-7-yl)pyrazolo [3,4-d]pyrimidin-6-yl]amino]-N,1-dimethyl-cyclopentanecarboxamide] | 6.70 to 7.60 | –
10 | NC(=O)C1(NC(=O)[C@@H]2CC[C@@H](Nc3ncc4c(Br)nn(-c5cc(F)c6ncccc6c5)c4n3)C2)CC1 [(1R,3R)-3-[[3-bromo-1-(8-fluoro-6-quinolyl)pyrazolo[3,4-d]pyrimidin-6-yl]amino]-N-(1-carbamoylcyclopropyl)cyclopentane-carboxamide] | 6.70 to 7.60 | –
11 | CNC(=O)[C@]1(C)CC[C@@H](Nc2ncc3c(Br)nn(-c4cnc5c(CCCN)cccc5c4)c3n2)C1 [(1R,3R)-3-[[1-[8-(3-aminopropyl)-3-quinolyl]-3-bromo-pyrazolo[3,4-d]pyrimidin-6-yl]amino]-N,1-dimethyl-cyclopentanecarboxamide] | 6.70 to 7.60 | –
12 | CNC(=O)[C@]1(C)CC[C@@H](Nc2ncc3c(Br)nn(-c4cc(CC(C)(C)O)c5ncccc5c4)c3n2)C1 [(1R,3R)-3-[[3-bromo-1-[8-(2-hydroxy-2-methyl-propyl)-6-quinolyl]pyrazolo[3,4-d]pyrimidin-6-yl]amino]-N,1-dimethyl-cyclopentanecarboxamide] | 6.70 to 7.60 | –
13 | C[C@H](N)c1cc(Cl)cc(-n2nc(Br)c3cnc(N[C@@H]4CC[C@@](C)(O)C4)nc32)c1 [Example 75, (1R,3R)-3-((1-(3-((S)-1-aminoethyl)-5-chlorophenyl)-3-bromo-1H-pyrazolo[3,4-d]pyrimidin-6-yl)amino)-1-methylcyclopentan-1-ol] | – | 6.70 to 7.60
14 | CC(O)C(=O)N1CCN(C(=O)[C@@H]2CC[C@@H](Nc3ncc4c(Br)nn(-c5ccc6ncccc6c5)c4n3)C2)CC1 (stereo partly drawn) [1-(4-((1R,3R)-3-((3-bromo-1-(quinolin-6-yl)-1H-pyrazolo[3,4-d]pyrimidin-6-yl)amino)cyclopentane-1-carbonyl)piperazin-1-yl)-2-hydroxypropan-1-one] | 6.70 to 7.60 | –
15 | CNC(=O)C1(C)CC[C@@H](Nc2ncc3c(Br)nn(-c4cccc(CCCO)c4)c3n2)C1 (stereo partly drawn) [(3R)-3-[[3-bromo-1-[3-(3-hydroxypropyl)phenyl]pyrazolo[3,4-d]pyrimidin-6-yl]amino]-N,1-dimethyl-cyclopentane-carboxamide] | 6.70 to 7.60 | –
16 | CC(=O)N1CCC(Nc2ncc3c(Br)nn(-c4cc(F)c5ncccc5c4)c3n2)CC1 [1-[4-[[3-bromo-1-(8-fluoro-6-quinolyl)pyrazolo[3,4-d]pyrimidin-6-yl]amino]-1-piperidyl]ethanone] | 6.70 to 7.60 | –
17 | CN(C(=O)[C@]1(C)CC[C@@H](Nc2ncc3c(Br)nn(-c4cc(F)c5ncccc5c4)c3n2)C1)C(C)(C)CO [(1R,3R)-3-[[3-bromo-1-(8-fluoro-6-quinolyl)pyrazolo[3,4-d]pyrimidin-6-yl]amino]-N-(2-hydroxy-1,1-dimethyl-ethyl)-N,1-dimethyl-cyclopentanecarboxamide] | > 7.60 | –
18 | O=C(N[C@@H]1CCNC[C@H]1F)[C@@H]1CC[C@@H](Nc2ncc3c(Br)nn(-c4cc(F)c5ncccc5c4)c3n2)C1 [(1R,3R)-3-((3-bromo-1-(8-fluoroquinolin-6-yl)-1H-pyrazolo[3,4-d]pyrimidin-6-yl)amino)-N-((3R,4R)-3-fluoropiperidin-4-yl)cyclo-pentane-1-carboxamide] | 6.70 to 7.60 | –
19 | CNC(=O)[C@]1(C)CC[C@@H](Nc2ncc3c(Br)nn(-c4cc(F)c5nc(C)cc(Cl)c5c4)c3n2)C1 [(1R,3R)-3-[[3-bromo-1-(4-chloro-8-fluoro-2-methyl-6-quinolyl)pyrazolo[3,4-d]pyrimidin-6-yl]amino]-N,1-dimethyl-cyclopentanecarboxamide] | 6.70 to 7.60 | –
20 | CNC(=O)[C@]1(C)CC[C@@H](Nc2ncc3c(Br)nn(-c4ccc(C#N)c(CNS(C)(=O)=O)c4)c3n2)C1 [(1R,3R)-3-[[3-bromo-1-[4-cyano-3-(methanesulfonamidomethyl)phenyl]pyrazolo[3,4-d]pyrimidin-6-yl]amino]-N,1-dimethyl-cyclopentanecarboxamide] | 6.70 to 7.60 | –
21 | CNC(=O)[C@]1(C)CC[C@@H](Nc2ncc3c(Br)nn(-c4ccc(-c5nnc(C)s5)c(CCN(C)C)c4)c3n2)C1 [Example 63, (1R,3R)-3-((3-bromo-1-(3-(2-(dimethylamino)ethyl)-4-(5-methyl-1,3,4-thiadiazol-2-yl)phenyl)-1H-pyrazolo[3,4-d]pyrimidin-6-yl)amino)-N,1-dimethylcyclopentane-1-carboxamide; 2,2,2-trifluoroacetic acid] | – | 6.70 to 7.60
